Experiment [1] relates to hepatitis C replicon. Description: hepatitis C replicon EC50. The conditions noted are these: Hepatitis C virus. In kind it is cell-based. The source says:
NS3-NS4 inhibition activity can be determined using known assay methods.
A general note: A replicon is a self-replicating genome or part of one, used to study replication in cells.

Experiment [2] has as its target NS3/NS4 complexes (Hepatitis C virus genotype 1a, UniProt P27958). Nature of the experiment: NS3/NS4 inhibition activity (IC50). Type of experiment: biochemical. The conditions noted are these: Table 2, read-out: IC50. An excerpt:
NS3-NS4 inhibition activity can be determined using known assay methods. For example, NS3/NS4 complexes may be formed and inhibitory concentrations of test compounds determined as described in U.S. Patent Application Publication Number 2007/0054842 paragraph numbers 1497-1509, which is incorporated herein by reference in its entirety. Similarly, hepatitis C replicon EC50 may be determined using known assay methods such as described in U.S. Patent Application Publication Number 2007/0054842 paragraph numbers 1510-1515. Assays may be conducted at ambient temperature (23° C.) in assay buffer containing 50 mM Tris-HCl, pH 7.5, 15% glycerol, 0.6 mM Lauryldimethylamine Oxide (LDAO), 25 μM NS4A peptide, and 10 mM Dithiothreitol (DTT).

Setting [3] is: Table 2, hepatitis C replicon, read-out: EC50.

Where two headings read alike, the source gives them in different places. Some results are limits rather than exact numbers.

The results in this text go back to US8048862B2, “Macrocyclic inhibitors of hepatitis C virus replication” (priority 2008, dated 2011).

NS3/NS4 complexes, sequence (P27958 1027-1657): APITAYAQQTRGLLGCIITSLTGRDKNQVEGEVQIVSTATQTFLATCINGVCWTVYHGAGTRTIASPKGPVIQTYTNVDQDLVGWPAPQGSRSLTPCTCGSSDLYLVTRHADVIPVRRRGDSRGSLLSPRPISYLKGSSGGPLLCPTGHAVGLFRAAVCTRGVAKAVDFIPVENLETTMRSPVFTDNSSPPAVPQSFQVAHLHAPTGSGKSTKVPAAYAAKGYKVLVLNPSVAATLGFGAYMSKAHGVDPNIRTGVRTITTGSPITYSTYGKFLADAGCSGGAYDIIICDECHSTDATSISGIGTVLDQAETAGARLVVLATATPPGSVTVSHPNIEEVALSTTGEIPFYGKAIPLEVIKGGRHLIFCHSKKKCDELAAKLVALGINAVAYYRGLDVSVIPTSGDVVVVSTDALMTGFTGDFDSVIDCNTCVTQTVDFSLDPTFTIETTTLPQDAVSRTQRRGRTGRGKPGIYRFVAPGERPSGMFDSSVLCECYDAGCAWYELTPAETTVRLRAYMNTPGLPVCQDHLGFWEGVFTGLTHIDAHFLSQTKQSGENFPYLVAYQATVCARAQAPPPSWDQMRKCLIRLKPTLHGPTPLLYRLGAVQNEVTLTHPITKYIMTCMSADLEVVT
NS3/NS4 complexes, sequence (P27958 1658-1711): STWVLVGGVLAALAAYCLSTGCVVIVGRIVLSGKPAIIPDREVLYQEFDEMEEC

In general, EC50 refers to the concentration needed to bring the measured effect to its halfway point. Usually IC50 stands for the concentration that inhibits the measured activity by half. Turning to `O=C1N[C@]2(C(=O)O)C[C@H]2/C=C\CCCCC[C@H](Nc2ccccc2)C(=O)N2C[C@H](Oc3nc4ccccc4s3)C[C@@H]12` [Compound 101], the EC50 in experiment [1] (setting [3]) was greater than 500 nM. In addition, the IC50 in experiment [2] fell in the range of 75 to 500 nM. In the same order, the values of `O=C1N[C@]2(C(=O)O)C[C@H]2/C=C\CCCCC[C@H](Nc2cccc(C(F)(F)F)c2)C(=O)N2C[C@H](Oc3nc4ccccc4s3)C[C@@H]12` [Compound 110] are greater than 500 nM and 10 to 75 nM. In the same order, the values of `CC(C)(C)c1csc(N[C@H]2CCCCC/C=C\[C@@H]3C[C@@]3(C(=O)O)NC(=O)[C@@H]3C[C@@H](Oc4nc5ccccc5s4)CN3C2=O)n1` [Compound 119] are greater than 500 nM and 10 to 75 nM. In the same order, the values of `O=C1N[C@]2(C(=O)NS(=O)(=O)C3CC3)C[C@H]2/C=C\CCCCC[C@H](Nc2ccccc2)C(=O)N2C[C@H](Oc3nc4ccccc4s3)C[C@@H]12` [Compound 157] are 10 to 75 nM and less than 10 nM. For the compound `COc1ccc2c(O[C@@H]3C[C@H]4C(=O)N[C@]5(C(=O)NS(=O)(=O)C6CC6)C[C@H]5/C=C\CCCCC[C@H](Nc5ccccc5)C(=O)N4C3)cc(-c3ccccc3)nc2c1` [Compound 164], in experiment [1] (setting [3]), the EC50 is less than 10 nM. In experiment [2], the IC50 is less than 10 nM. Regarding `O=C1N[C@]2(C(=O)NS(=O)(=O)C3CC3)C[C@H]2/C=C\CCCCC[C@H](NCc2ccccc2)C(=O)N2C[C@H](Oc3nc4ccccc4s3)C[C@@H]12` [Compound 197], in experiment [1] (setting [3]), the EC50 lay in the range of 10 to 75 nM. Further, the IC50 in experiment [2] is less than 10 nM. In the same order, the values of `CC1(S(=O)(=O)NC(=O)[C@@]23C[C@H]2/C=C\CCCCC[C@H](Nc2ccccc2)C(=O)N2C[C@H](Oc4nc5ccccc5s4)C[C@H]2C(=O)N3)CC1` [Compound 213] are 10 to 75 nM and less than 10 nM. In the case of `CC1(S(=O)(=O)NC(=O)[C@@]23C[C@H]2/C=C\CCCCC[C@H](Nc2ccccc2)C(=O)N2C[C@H](Oc4nc5ccc(Br)cc5s4)C[C@H]2C(=O)N3)CC1` [Compound 214], the EC50 in experiment [1] (setting [3]) fell in the range of 75 to 500 nM. Further, the IC50 in experiment [2] was less than 10 nM.

As for `CC1(S(=O)(=O)NC(=O)[C@@]23C[C@H]2/C=C\CCCCC[C@H](Nc2ccccc2)C(=O)N2C[C@H](Oc4nc5ccc(Cl)cc5s4)C[C@H]2C(=O)N3)CC1` [Compound 217], the EC50 in experiment [1] (setting [3]) fell in the range of 75 to 500 nM. For the same compound, in experiment [2], the IC50 was less than 10 nM. `Cc1ccc2nc(O[C@@H]3C[C@H]4C(=O)N[C@]5(C(=O)NS(=O)(=O)C6(C)CC6)C[C@H]5/C=C\CCCCC[C@H](Nc5ccccc5)C(=O)N4C3)sc2c1` [Compound 218]: in experiment [1] (setting [3]), the EC50 was in the range of 75 to 500 nM. In experiment [2], the IC50 was less than 10 nM. In the same order, the values of `COc1ccc2c(O[C@@H]3C[C@H]4C(=O)N[C@]5(C(=O)NS(=O)(=O)C6(C)CC6)C[C@H]5/C=C\CCCCC[C@H](Nc5ccccc5)C(=O)N4C3)cc(-c3ccccc3)nc2c1` [Compound 220] are less than 10 nM and less than 10 nM. For `CC1(S(=O)(=O)NC(=O)[C@@]23C[C@H]2/C=C\CCCCC[C@H](Nc2ccccc2)C(=O)N2C[C@H](Oc4nccc5ccccc45)C[C@H]2C(=O)N3)CC1` [Compound 221], in that order: 10 to 75 nM and less than 10 nM. In the same order, the values of `CC1(S(=O)(=O)NC(=O)[C@@]23C[C@H]2/C=C\CCCCC[C@H](Nc2cccc(C(F)(F)F)c2)C(=O)N2C[C@H](Oc4nc5ccccc5s4)C[C@H]2C(=O)N3)CC1` [Compound 222] are 75 to 500 nM and less than 10 nM. For `CC1(S(=O)(=O)NC(=O)[C@@]23C[C@H]2/C=C\CCCCC[C@H](Nc2cccc(C(F)(F)F)c2)C(=O)N2C[C@H](Oc4nc5ccc(Br)cc5s4)C[C@H]2C(=O)N3)CC1` [Compound 223], in experiment [1] (setting [3]), the EC50 fell in the range of 75 to 500 nM. For the same compound, the IC50 in experiment [2] is less than 10 nM. As to `CC1(S(=O)(=O)NC(=O)[C@@]23C[C@H]2/C=C\CCCCC[C@H](Nc2cccc(C(F)(F)F)c2)C(=O)N2C[C@H](Oc4nc5ccc(Cl)cc5s4)C[C@H]2C(=O)N3)CC1` [Compound 226], the EC50 in experiment [1] (setting [3]) is 75 to 500 nM. The IC50 in experiment [2] was less than 10 nM.

`Cc1ccc2nc(O[C@@H]3C[C@H]4C(=O)N[C@]5(C(=O)NS(=O)(=O)C6(C)CC6)C[C@H]5/C=C\CCCCC[C@H](Nc5cccc(C(F)(F)F)c5)C(=O)N4C3)sc2c1` [Compound 227]: the EC50 in experiment [1] (setting [3]) was 75 to 500 nM. The IC50 in experiment [2] is less than 10 nM. In the same order, the values of `COc1ccc2c(O[C@@H]3C[C@H]4C(=O)N[C@]5(C(=O)NS(=O)(=O)C6(C)CC6)C[C@H]5/C=C\CCCCC[C@H](Nc5cccc(C(F)(F)F)c5)C(=O)N4C3)cc(-c3ccccc3)nc2c1` [Compound 229] are less than 10 nM and less than 10 nM. For the compound `CC1(S(=O)(=O)NC(=O)[C@@]23C[C@H]2/C=C\CCCCC[C@H](Nc2cccc(C(F)(F)F)c2)C(=O)N2C[C@H](Oc4nccc5ccccc45)C[C@H]2C(=O)N3)CC1` [Compound 230], the EC50 in experiment [1] (setting [3]) was less than 10 nM. For the same compound, the IC50 in experiment [2] was less than 10 nM. In the case of `CC(C)(C)c1csc(N[C@H]2CCCCC/C=C\[C@@H]3C[C@@]3(C(=O)NS(=O)(=O)C3(C)CC3)NC(=O)[C@@H]3C[C@@H](Oc4nc5ccccc5s4)CN3C2=O)n1` [Compound 231], the EC50 in experiment [1] (setting [3]) lay within 10 to 75 nM. The IC50 in experiment [2] is less than 10 nM. In the same order, the values of `CC1(S(=O)(=O)NC(=O)[C@@]23C[C@H]2/C=C\CCCCC[C@H](Nc2cccc(F)c2)C(=O)N2C[C@H](Oc4nc5ccccc5s4)C[C@H]2C(=O)N3)CC1` [Compound 235] are 10 to 75 nM and less than 10 nM. For `COc1ccc2c(O[C@@H]3C[C@H]4C(=O)N[C@]5(C(=O)NS(=O)(=O)C6(C)CC6)C[C@H]5/C=C\CCCCC[C@H](Nc5cccc(F)c5)C(=O)N4C3)cc(-c3ccccc3)nc2c1` [Compound 242], in that order: less than 10 nM and less than 10 nM. As to `CC1(S(=O)(=O)NC(=O)[C@@]23C[C@H]2/C=C\CCCCC[C@H](Nc2cccc(F)c2)C(=O)N2C[C@H](Oc4nccc5ccccc45)C[C@H]2C(=O)N3)CC1` [Compound 243], the EC50 in experiment [1] (setting [3]) is 10 to 75 nM. Besides, the IC50 in experiment [2] was less than 10 nM. Consider `COc1cccc(N[C@H]2CCCCC/C=C\[C@@H]3C[C@@]3(C(=O)NS(=O)(=O)C3(C)CC3)NC(=O)[C@@H]3C[C@@H](Oc4nc5ccccc5s4)CN3C2=O)c1` [Compound 244], for which, in experiment [1] (setting [3]), the EC50 was in the range of 10 to 75 nM. The IC50 in experiment [2] was less than 10 nM. For `CC1(S(=O)(=O)NC(=O)[C@@]23C[C@H]2/C=C\CCCCC[C@H](NCc2ccccc2)C(=O)N2C[C@H](Oc4nc5ccccc5s4)C[C@H]2C(=O)N3)CC1` [Compound 253], in that order: 10 to 75 nM and less than 10 nM. For `O=C1N[C@]2(C(=O)NOc3ccccc3)C[C@H]2/C=C\CCCCC[C@H](NCc2ccccc2)C(=O)N2C[C@H](Oc3nc4ccccc4s3)C[C@@H]12` [Compound 309], in that order: greater than 500 nM and 75 to 500 nM. For `CC(=O)N(Cc1ccccc1)[C@H]1CCCCC/C=C\[C@@H]2C[C@@]2(C(=O)NS(=O)(=O)C2(C)CC2)NC(=O)[C@@H]2C[C@@H](Oc3nc4ccccc4s3)CN2C1=O` [Compound 315], the EC50 in experiment [1] (setting [3]) was greater than 500 nM. Further, the IC50 in experiment [2] fell in the range of 10 to 75 nM. `CC(=O)N(Cc1ccccc1)[C@H]1CCCCC/C=C\[C@@H]2C[C@@]2(C(=O)NS(=O)(=O)C2CC2)NC(=O)[C@@H]2C[C@@H](Oc3nc4ccccc4s3)CN2C1=O` [Compound 316]: in experiment [1] (read-out: EC50 nM), the EC50 is greater than 500 nM. For the same compound, the IC50 in experiment [2] was 10 to 75 nM.

For the compound `CS(=O)(=O)N(Cc1ccccc1)[C@H]1CCCCC/C=C\[C@@H]2C[C@@]2(C(=O)NS(=O)(=O)C2CC2)NC(=O)[C@@H]2C[C@@H](Oc3nc4ccccc4s3)CN2C1=O` [Compound 317], the EC50 in experiment [1] (setting [3]) is greater than 500 nM. Moreover, the IC50 in experiment [2] lay within 75 to 500 nM. For `CCn1c(O[C@@H]2C[C@H]3C(=O)N[C@]4(C(=O)O)C[C@H]4/C=C\CCCCC[C@H](Nc4cc(F)cc(C(F)(F)F)c4)C(=O)N3C2)nc2ccccc21` [Compound 318], in experiment [1] (setting [3]), the EC50 is greater than 500 nM. Also, the IC50 in experiment [2] was less than 10 nM.

Regarding `CCn1c(O[C@@H]2C[C@H]3C(=O)N[C@]4(C(=O)NS(=O)(=O)C5(C)CC5)C[C@H]4/C=C\CCCCC[C@H](Nc4cc(F)cc(C(F)(F)F)c4)C(=O)N3C2)nc2ccccc21` [Compound 319], the EC50 in experiment [1] (setting [3]) is less than 10 nM. Further, the IC50 in experiment [2] is less than 10 nM.

`CC(C)n1c(O[C@@H]2C[C@H]3C(=O)N[C@]4(C(=O)O)C[C@H]4/C=C\CCCCC[C@H](Nc4cc(F)cc(C(F)(F)F)c4)C(=O)N3C2)nc2ccccc21` [Compound 320]: the EC50 in experiment [1] (setting [3]) was less than 10 nM. The IC50 in experiment [2] was less than 10 nM. For the compound `O=C1N[C@]2(C(=O)O)C[C@H]2/C=C\CCCCC[C@H](Nc2ccc(-c3ccccc3)cc2)C(=O)N2C[C@H](Oc3nc4ccccc4s3)C[C@@H]12` [Compound 325], the EC50 in experiment [1] (setting [3]) is greater than 500 nM. In addition, the concentration for half-maximal inhibition (IC50) in experiment [2] is 75 to 500 nM.

In the case of `CC1(S(=O)(=O)NC(=O)[C@@]23C[C@H]2/C=C\CCCCC[C@H](Nc2ccc(-c4ccccc4)cc2)C(=O)N2C[C@H](Oc4nc5ccccc5s4)C[C@H]2C(=O)N3)CC1` [Compound 326], the EC50 in experiment [1] (setting [3]) is greater than 500 nM. Also, the IC50 in experiment [2] is less than 10 nM. With `COc1ccc2c(O[C@@H]3C[C@H]4C(=O)N[C@]5(C(=O)NS(=O)(=O)C6(C)CC6)C[C@H]5/C=C\CCCCC[C@H](Nc5cccc(NS(C)(=O)=O)c5)C(=O)N4C3)cc(-c3nc(C(C)C)cs3)nc2c1C` [Compound 484], the EC50 in experiment [1] (setting [3]) was in the range of 10 to 75 nM. Still for that read-out and setting: to `COc1ccc2c(O[C@@H]3C[C@H]4C(=O)N[C@]5(C(=O)NS(=O)(=O)C6(C)CC6)C[C@H]5/C=C\CCCCC[C@H](Nc5ccc(NC(C)=O)cc5)C(=O)N4C3)cc(-c3nc(C(C)C)cs3)nc2c1C` [Compound 485] belongs 10 to 75 nM.
